This is an account of results in PMC2196289 (The Journal of Experimental Medicine, 1997).

As a reminder, the Kd is the free concentration of one partner at which half of the binding sites on the other are occupied at equilibrium, for simple one-to-one binding. High values mean a looser complex, low ones a tighter complex.

SMILES strings stand for the structures.

The assay addresses T1, mouse LXA4R (lipoxin A4 receptor) (Mus musculus, UniProt O08790).
T1 sequence (O08790 1-351): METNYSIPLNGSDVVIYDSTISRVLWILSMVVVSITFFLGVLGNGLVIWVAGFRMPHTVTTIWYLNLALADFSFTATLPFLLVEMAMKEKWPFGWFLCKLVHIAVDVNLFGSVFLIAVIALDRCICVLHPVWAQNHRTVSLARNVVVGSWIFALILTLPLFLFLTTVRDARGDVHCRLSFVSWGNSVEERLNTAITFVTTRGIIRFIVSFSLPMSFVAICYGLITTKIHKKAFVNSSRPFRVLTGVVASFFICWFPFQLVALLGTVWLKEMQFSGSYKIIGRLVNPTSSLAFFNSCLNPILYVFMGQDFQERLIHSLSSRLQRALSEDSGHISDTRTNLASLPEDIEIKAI
The assay can be described thus: [3H]LXA4 radioligand binding. Type of assay: cell-based.

In turn, `CCCCC[C@H](O)/C=C/C=C\C=C\C=C\[C@@H](O)[C@@H](O)CCCC(=O)O` [LXA4, 5(S),6(R),15(S)-trihydroxy7,9,13-trans-11-cis-eicosatetraenoic acid] came in with a dissociation constant (Kd) of 1.5 ± 0.6 nM.
